Results published in patent publication US8551914B2, “Pesticidal compositions” (Dow AgroSciences, LLC., priority 2011, dated 2013).
Structures can show the parent of a compound that is named as a salt.

Experiments:
Assay type in all cases: in vivo
[1] = test system: CEW (Helicoverpa zea); assay: Bioassay on corn earworm (CEW), 128-well diet tray assay; conditions: 50 μg/cm2 on artificial diet, second instar larvae, five to seven days, 25° C.; for mortality at 50 µg/cm2: Helicoverpa zea, 168 h
Protocol: (§1) Certain molecules disclosed in this document were tested against BAW and CEW using procedures described in the following examples. In the reporting of the results, the “BAW & CEW Rating Table” was used (See Table Section).
Bioassays on CEW were conducted using a 128-well diet tray assay. one to five second instar CEW larvae were placed in each well (3 mL) of the diet tray that had been previously filled with 1 mL of artificial diet to which 50 μg/cm^2 of the test compound (dissolved in 50 μL of 90:10 acetone-water mixture) had been applied (to each of eight wells) and then allowed to dry. Trays were covered with a clear self-adhesive cover, and held at 25° C., 14:10 light-dark for five to seven days. Percent mortality was recorded for the larvae in each well; activity in the eight wells was then averaged. The results are indicated in the table entitled “Table 1” (See Table Section).

[2] = test system: GPA (Myzus persicae); assay: Bioassay on green peach aphid (GPA), foliar spray on cabbage seedlings; conditions: 200 ppm spray on cabbage seedlings, three days, Abbott corrected % control; for mortality at 200 ppm: Myzus persicae, foliar, 72 h
Protocol: Certain molecules disclosed in this document were tested against GPA using procedures described in the following example. In the reporting of the results, the “GPA Rating Table” was used (See Table Section).
Cabbage seedlings grown in 3-inch pots, with 2-3 small (3-5 cm) true leaves, were used as test substrate. The seedlings were infested with 20-50 GPA (wingless adult and nymph stages) one day prior to chemical application. Four pots with individual seedlings were used for each treatment. Test compounds (2 mg) were dissolved in 2 mL of acetone/methanol (1:1) solvent, forming stock solutions of 1000 ppm test compound. The stock solutions were diluted 5× with 0.025% Tween 20 in H2O to obtain the solution at 200 ppm test compound. A hand-held aspirator-type sprayer was used for spraying a solution to both sides of […] leaves until runoff. Reference plants (solvent check) were sprayed with the diluent only containing 20% by volume of acetone/methanol (1:1) solvent. Treated plants were held in a holding room for three days at approximately 25° C. and ambient relative humidity (RH) prior to grading. Evaluation was conducted by counting the number of live aphids per plant under a microscope. Percent Control was measured by using Abbott's correction formula (W. S. Abbott, “A Method of Computing the Effectiveness of an Insecticide” J. Econ. Entomol. 18 (1925), pp. 265-26′7) as follows. Corrected % Control=100*(X−Y)/X • where • X=No. of live aphids on solvent check plants and • Y=No. of live aphids on treated plants

[3] = test system: BAW (Spodoptera exigua); assay: Bioassay on beet armyworm (BAW), 128-well diet tray assay; conditions: 50 μg/cm2 on artificial diet, second instar larvae, five to seven days, 25° C.; for mortality at 50 µg/cm2: Spodoptera exigua, 168 h
Protocol: as §1
Bioassays on BAW were conducted using a 128-well diet tray assay. one to five second instar BAW larvae were placed in each well (3 mL) of the diet tray that had been previously filled with 1 mL of artificial diet to which 50 μg/cm^2 of the test compound (dissolved in 50 μL of 90:10 acetone-water mixture) had been applied (to each of eight wells) and then allowed to dry. Trays were covered with a clear self-adhesive cover, and held at 25° C., 14:10 light-dark for five to seven days. Percent mortality was recorded for the larvae in each well; activity in the eight wells was then averaged. The results are indicated in the table entitled “Table 1” (See Table Section).

| SMILES | % Mortality CEW 50 μg/cm2 [1] | % Mortality GPA 200 ppm [2] | % Mortality BAW 50 μg/cm2 [3] | mortality at 50 µg/cm2 [1] | mortality at 200 ppm [2] | mortality at 50 µg/cm2 [3] |
| --- | --- | --- | --- | --- | --- | --- |
| CCO[C@@H]1[C@@H](OC)[C@H](C)O[C@@H](ONCc2ccc(-c3ncn(-c4ccc(OC(F)(F)C(F)(F)F)cc4)n3)cc2)[C@@H]1OC [Compound 1, O-((2S,3R,4R,5S,6S)-4-ethoxy-3,5-dimethoxy-6-methyl-tetrahydropyran-2-yl)-N-{4-[1-(4-pentafluoroethyloxy-phenyl)-1H-[1,2,4]triazol-3-yl]-benzyl}-hydroxylamine] | A (50-100) | B (More than 0-Less than 80) | A (50-100) | – | – | – |
| CO[C@@H]1[C@@H](O)[C@H](C)O[C@@H](ONCc2ccc(-c3ncn(-c4ccc(OC(F)(F)C(F)(F)F)cc4)n3)cc2)[C@@H]1OC [Compound 2, (2S,3S,4R,5R,6S)-4,5-Dimethoxy-2-methyl-6-(N-{4-[1-(4-pentafluoroethyloxy-phenyl)-1H-[1,2,4]triazo1-3-yl]-benzyl}aminooxy)-tetrahydroyran-3-ol] | – | – | – | 50 to 100% | 0 to 80% | 50 to 100% |
| CO[C@@H]1[C@@H](OC)[C@H](C)O[C@@H](ONCc2ccc(-c3ncn(-c4ccc(OC(F)(F)F)cc4)n3)cc2)[C@@H]1OC [Compound 3, N-{4-[1-(4-trifluoromethoxyphenyl)-1H-[1,2,4]triazol-3-yl]-benzyl}-O-((2S,3R,4R,5S,6S)-3,4,5-trimethoxy-6-methyl-tetrahydro-pyran-2-yl)-hydroxylamine] | A (50-100) | – | A (50-100) | – | 0 to 80% | – |
| CO[C@@H]1[C@@H](OC)[C@H](C)O[C@@H](ONCc2ccc(-c3ncn(-c4ccc(OC(F)(F)F)cc4)n3)cc2)[C@@H]1OC.Cl [Compound 4, N-{4-[1-(4-trifluoromethoxyphenyl)-1H-[1,2,4]triazol-3-yl]-benzyl}-O-((2S,3R,4R,5S,6S)-3,4,5-trimethoxy-6-methyl-tetrahydropyran-2-yl)-hydroxylamine hydrochloride] | B (More than 0-Less than 50) | – | – | – | – | 50 to 100% |
| CCO[C@@H]1[C@@H](OC)[C@H](C)O[C@@H](ONCc2ccc(-c3ncn(-c4ccc(OC(F)(F)C(F)(F)F)cc4)n3)cc2)[C@@H]1OC [Compound 5, O-((2S,3R,4R,5S,6S)-4-Ethoxy-3,5-dimethoxy-6-methyl-tetrahydropyran-2-yl)-N-{4-[1-(4-pentafluoroethyloxy-phenyl)-1H-[1,2,4]triazol-3-yl]-benzyl}-hydroxylamine hydrochloride] | – | – | – | 50 to 100% | 0% | 50 to 100% |
| CO[C@@H]1[C@@H](OC)[C@H](C)O[C@@H](ON(Cc2ccc(-c3ncn(-c4ccc(OC(F)(F)F)cc4)n3)cc2)C(C)=O)[C@@H]1OC [Compound 6, N-{4-[1-(4-trifluoromethoxyphenyl)-1H-[1,2,4]triazol-3-yl]-benzyl}-N-((2S,3R,4R,5S,6S)-3,4,5-trimethoxy-6-methyl-tetrahydropyran-2-yloxy)-acetamide] | – | – | – | 50 to 100% | 0 to 80% | 50 to 100% |
| CO[C@@H]1[C@@H](OC)[C@H](C)O[C@@H](ON(C)Cc2ccc(-c3ncn(-c4ccc(OC(F)(F)F)cc4)n3)cc2)[C@@H]1OC [Compound 7, N-Methyl-N-{4-[1-(4-trifluoromethoxyphenyl)-1H-[1,2,4]triazol-3-yl]-benzyl}-O-((2S,3R,4R,5S6S)-3,4,5-trimethoxy-6-methyl-tetrahydro-pyran-2-yl)-hydroxylamine] | – | – | – | 50 to 100% | 0% | 50 to 100% |
| CO[C@@H]1[C@@H](OC)[C@H](C)O[C@@H](ON(Cc2ccc(-c3ncn(-c4ccc(OC(F)(F)F)cc4)n3)cc2)C(=O)CCC(=O)O)[C@@H]1OC [Compound 8, N-{4-[1-(4-trifluoromethoxyphenyl)-1H-[1,2,4]triazol-3-yl]-benzyl}-N-((2S,3R,4R,5S,6S)-3,4,5-trimethoxy-6-methyl-tetrahydropyran-2-yloxy)-succinamic acid] | – | – | – | 0% | 0% | 0% |
| COC(=O)CC(=O)N(Cc1ccc(-c2ncn(-c3ccc(OC(F)(F)F)cc3)n2)cc1)O[C@@H]1O[C@@H](C)[C@H](OC)[C@@H](OC)[C@H]1OC [Compound 9, N-{4-[1-(4-trifluoromethoxyphenyl)-1H-[1,2,4]triazol-3-yl]-benzyl}-N-((2S,3R,4R,5S,6S)-3,4,5-trimethoxy-6-methyl-tetrahydropyran-2-yloxy)-malonamic acid methyl ester] | – | – | – | 50 to 100% | 0 to 80% | 50 to 100% |
